Test results taken from patent US11781160B2, “Methods for the production of methacrylates” (priority 2018, dated 2023).

Key:
E. coli BW25113 ΔsoxR = assay: Growth in MSX medium with 20% (v/v) BMA, knock-out strain; format: cell-based, Escherichia coli; conditions: 20% (v/v) BMA added immediately after inoculation
[1] = system: gene transcription in strain 2; assay: Transcriptome analysis with added BMA, strain 2
Procedure: (§1) Transcriptome analysis was carried out to characterize transcriptional activity in mutant microorganisms using standard methods.
(§2) Sample Preparation • 1) Streak strains onto fresh MSX agar (15 g/L) plates directly from the cryostocks and incubate overnight at 37° C. • 2) Isolate single colonies and inoculate pre-cultures in MSX, using 50 ml shake flasks. Incubate overnight at 37° C. and 250 rpm. • 3) Inoculate cultures in MSX to an initial OD600 of 0.05, using 250 mL pyrex shake flasks with 24/29 neck join. Incubate at 37° C. and 250 rpm. Do 4 biological replicates (3 replicates for sequencing plus one backup)—4 flasks per strain. • 4) Seal shake flasks with sterile Suba seals. To monitor OD, take samples using a sterile syringe and needle after first swabbing the Suba seals with 70% ethanol. Monitor OD. • 5) When OD reaches 0.3, collect first sample for RNA extraction (“before” sample) into a pre-chilled falcon. Keep samples on ice. • 6) Immediately after, add 20% (v/v) BMA. Re-incubate cultures. • 7) Quickly process the samples according to the RNeasy kit protocol, until step 6 of protocol 1. Always keep samples on ice and store it at −80° C. until further use, if possible, flash freeze in liquid nitrogen it before storing. • 8) One hour after the first sample collection/BMA addition, collect the second sample for RNA extraction (“after” sample). Proceed as explained before. • 9) Continue to monitor the OD until the cultures reach 24 h. • To summarise, each strain tested will have 6 samples to send for sequencing, 3 collected right before the addition and 3 collected one hour after, plus 1 “back-up” for before and after, in case something goes wrong during extraction (8 samples total). Besides the WT strain with the addition of BMA, samples were also collected from a WT culture with no BMA, one hour after reaching OD of 0.3, as a control.
(§3) Transcription was compared for a double mutant and the wild-type in the presence and absence of BMA relative to the level in the wild type in the absence of BMA. For the avoidance of doubt the level in the table is the ratio of the level in the strain under the BMA exposure relative to the level in the wild type in the absence of added BMA.

[2] = system: gene transcription in wild type; assay: Transcriptome analysis with added BMA, wild type
Procedure: as §1, §2, §3

[3] = system: E. coli BW25113 isolate 23-soxR(R20L) rpoC(r1075C) 2133236( T> A) 3915915(T > G) acrR(indels); assay: Growth kinetics of isolated strain 23 with 20% v/v BMA
[4] = system: E. coli BW25113 isolate 2-rob(R156H) rpoC(L361R) ilvN(C41Y) ygbK(A294E) IpxM(168_185del); assay: Growth kinetics of isolated strain 2 with 20% v/v BMA
[5] = system: E. coli MG1655 acrR(V29G); assay: Growth in MSX medium with 20% (v/v) BMA, single mutation strain; format: cell-based, Escherichia coli; conditions: 20% (v/v) BMA added immediately after inoculation
[6] = system: E. coli BW25113 isolate 5-soxR(Leu139X), 580116(G > T) acrR(indels); assay: Growth kinetics of isolated strain 5 with 20% v/v BMA

Structure (SMILES): C=C(C)C(=O)OCCCC [BMA, butyl 2-methylprop-2-enoate]
- Growth in the presence of BMA (E. coli BW25113 ΔsoxR): unable to grow
- IdhA transcription level relative to wild type without BMA [1]: 11.32
- acrA transcription level relative to wild type without BMA [1]: 7.33
- acrB transcription level relative to wild type without BMA [1]: 6.68
- adiY transcription level relative to wild type without BMA [1]: 5.37
- ariR transcription level relative to wild type without BMA [1]: 35.30
- asr transcription level relative to wild type without BMA [1]: 95.27
- bssR transcription level relative to wild type without BMA [1]: 15.30
- ibpA transcription level relative to wild type without BMA [1]: 20.83
- ibpB transcription level relative to wild type without BMA [1]: 84.03
- narG transcription level relative to wild type without BMA [1]: 11.38
- nirB transcription level relative to wild type without BMA [1]: 8.77
- nirD transcription level relative to wild type without BMA [1]: 4.33
- pspA transcription level relative to wild type without BMA [1]: 15.40
- pspB transcription level relative to wild type without BMA [1]: 11.46
- pspD transcription level relative to wild type without BMA [1]: 11.22
- pspc transcription level relative to wild type without BMA [1]: 11.88
- raiA transcription level relative to wild type without BMA [1]: 14.09
- rmf transcription level relative to wild type without BMA [1]: 7.05
- soxS transcription level relative to wild type without BMA [1]: 4.10
- spy transcription level relative to wild type without BMA [1]: 22.92
- ybfA transcription level relative to wild type without BMA [1]: 18.45
- ybhG transcription level relative to wild type without BMA [1]: 6.87
- ybiH transcription level relative to wild type without BMA [1]: 8.65
- ydgU transcription level relative to wild type without BMA [1]: 31.80
- yhjx transcription level relative to wild type without BMA [1]: 7.35
- yibT transcription level relative to wild type without BMA [1]: 36.87
- ymgA transcription level relative to wild type without BMA [1]: 35.59
- ymgC transcription level relative to wild type without BMA [1]: 42.36
- ynfM transcription level relative to wild type without BMA [1]: 14.42
- yohk transcription level relative to wild type without BMA [1]: 8.45
- IdhA transcription level relative to wild type without BMA [2]: 0.59
- acrA transcription level relative to wild type without BMA [2]: 0.64
- acrB transcription level relative to wild type without BMA [2]: 0.98
- adiY transcription level relative to wild type without BMA [2]: 0.19
- ariR transcription level relative to wild type without BMA [2]: 0.44
- asr transcription level relative to wild type without BMA [2]: 0.22
- bssR transcription level relative to wild type without BMA [2]: 0.46
- ibpA transcription level relative to wild type without BMA [2]: 0.09
- ibpB transcription level relative to wild type without BMA [2]: 0.42
- narG transcription level relative to wild type without BMA [2]: 0.40
- nirB transcription level relative to wild type without BMA [2]: 0.06
- nirD transcription level relative to wild type without BMA [2]: 0.57
- pspA transcription level relative to wild type without BMA [2]: 0.04
- pspB transcription level relative to wild type without BMA [2]: 0.73
- pspD transcription level relative to wild type without BMA [2]: 0.14
- pspc transcription level relative to wild type without BMA [2]: 0.10
- raiA transcription level relative to wild type without BMA [2]: 0.11
- rmf transcription level relative to wild type without BMA [2]: 0.28
- soxS transcription level relative to wild type without BMA [2]: 0.24
- spy transcription level relative to wild type without BMA [2]: 3.91
- ybfA transcription level relative to wild type without BMA [2]: 0.39
- ybhG transcription level relative to wild type without BMA [2]: 0.19
- ybiH transcription level relative to wild type without BMA [2]: 0.04
- ydgU transcription level relative to wild type without BMA [2]: 7.95
- yhjx transcription level relative to wild type without BMA [2]: 1.72
- yibT transcription level relative to wild type without BMA [2]: 0.09
- ymgA transcription level relative to wild type without BMA [2]: 0.16
- ymgC transcription level relative to wild type without BMA [2]: 6.27
- ynfM transcription level relative to wild type without BMA [2]: 0.07
- yohk transcription level relative to wild type without BMA [2]: 0.13
- Growth rate [3]: 0.722 ± 0.019 h⁻¹
- Lag time [3]: 4 h
- Max cell concentration [3]: 0.529 ± 0.023 g/L
- Growth rate [4]: 0.532 ± 0.028 h⁻¹
- Lag time [4]: 6 h
- Max cell concentration [4]: 0.651 ± 0.052 g/L
- Growth in the presence of BMA [5]: able to grow
- Growth rate [6]: 0.625 ± 0.052 h⁻¹
- Lag time [6]: 5 h
- Max cell concentration [6]: 0.597 ± 0.096 g/L
